Results reported in patent US5700808A, “5- or 6-substituted β-carboline-3-carboxylic acid esters” (Schering Aktiengesellschaft, priority 1986, dated 1997).

Legend:
benzodiazepine receptor = assay: in vivo binding test (reduction of specific flunitrazepam binding in a living brain); conditions: dose reducing specific binding of flunitrazepam to the benzodiazepine receptor in a living brain to 50% of the control value
Source text: The ED50 in vivo value represents the dose of a test compound effecting a reduction in specific binding of flunitrazepam to the benzodiazepine receptor in a living brain to 50% of the control value.

[1] = chimney test (motor discoordination); format: in vivo; conditions: ip, higher ED50 is better, as it indicates lower activity in inducing motor discoordination
Experimental: The chimney test was performed according to the method of Poissier, Jr., et al. Med. Exp. 3: 81-84 (1960). The higher the ED50 value in the chimney test the better, since this indicates a lower activity in inducing motor discoordination.

bioavailability in rats = conditions: rat, in vivo

CCOC(=O)c1ncc2[nH]c3ccc(OCc4ccccc4)cc3c2c1COC [A, 6-benzyloxy-4-methoxymethyl-beta-carboline-3-carboxylic acid ethyl ester]
ED50 mg/kg in vivo (benzodiazepine receptor): 5.6 mg/kg
TD50 [1]: 12.1 mg/kg
bioavailability (bioavailability in rats): 17%

COCc1c(C(=O)OC(C)C)ncc2[nH]c3ccc(OCc4ccccc4)cc3c12 [B, 6-benzyloxy-4-methoxymethyl-beta-carboline-3-carboxylic acid ispropyl ester]
ED50 mg/kg in vivo (benzodiazepine receptor): 0.4 mg/kg
TD50 [1]: > 50 mg/kg
bioavailability (bioavailability in rats): 32%
